For eight compounds, GI50 and TGI results are on record in PubChem BioAssay (NCI).

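Step 1: Grow cells in 96-well plates. Step 2: Expose to compound for 48 hours at 5 concentrations. Step 3: Interpolate endpoints linearly; if unreached, use highest concentration. GI50 is the concentration that inhibits growth by half. Definition used: TGI = concentration required for complete inhibition of growth.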

Test systems include K-562 leukemia; KM12 colon; LOX IMVI melanoma; MALME-3M melanoma; NCI/ADR-RES ovarian; SF-539 CNS; SK-OV-3 ovarian; SN12C renal; TK-10 renal; UACC-257 melanoma.
Common to all, as to assay: NCI-60 cell line screen, 48 h

As for `CC([C@H]1CCC2C3CCC4C[C@@H](N)CC[C@]4(C)C3CC[C@@]21C)N(C)C` (stereo not given in full), the GI50 in the assay on K-562 leukemia was 2.27 µM; with KM12 colon, 7.55 µM; with LOX IMVI melanoma, 1.61 µM; in the assay on MALME-3M melanoma, 1.88 µM; with NCI/ADR-RES ovarian, 15.1 µM; in the assay with SF-539 CNS it was 2.01 µM. Also, the GI50 with SK-OV-3 ovarian is 13.4 µM; in the assay on SN12C renal, 8.17 µM; in the assay on TK-10 renal it was 12 µM; in the assay on UACC-257 melanoma it was 2.4 µM. For the same compound, the TGI was 7.34 µM in the assay with K-562 leukemia; 21.4 µM in the assay with KM12 colon; 3.44 µM with LOX IMVI melanoma; 5.11 µM in the assay with MALME-3M melanoma; 48.7 µM with NCI/ADR-RES ovarian; 4.98 µM with SF-539 CNS. The TGI in the assay on SK-OV-3 ovarian came out at 30.4 µM; in the assay on SN12C renal, 25.7 µM; in the assay with TK-10 renal it was 28.3 µM; with UACC-257 melanoma, 5.42 µM.

In the case of `C=C1C(=O)O[C@H]2[C@H]1CC/C(COC(=O)C(C)c1ccc(CC(C)C)cc1)=C\CC[C@@]1(C)O[C@@H]21` (stereo not given in full), the GI50 in the assay with K-562 leukemia is 0.359 µM; in the assay with KM12 colon, 1.79 µM; with LOX IMVI melanoma, 1.54 µM; in the assay on MALME-3M melanoma, 1.56 µM; in the assay with NCI/ADR-RES ovarian, 1.85 µM; in the assay on SF-539 CNS, 1.6 µM. In addition, the GI50 in the assay on SK-OV-3 ovarian was 9.7 µM; with SN12C renal, 1.34 µM; with TK-10 renal, 1.74 µM; in the assay with UACC-257 melanoma it was 1.66 µM. Further, the TGI in the assay on K-562 leukemia was determined as 1.96 µM; in the assay with KM12 colon, 3.69 µM; in the assay on LOX IMVI melanoma, 3.01 µM; in the assay on MALME-3M melanoma, 2.99 µM; with NCI/ADR-RES ovarian, 5.54 µM; with SF-539 CNS, 2.97 µM. Further, the TGI is 21.4 µM in the assay on SK-OV-3 ovarian, 2.72 µM with SN12C renal, 3.19 µM in the assay with TK-10 renal and 3.32 µM in the assay on UACC-257 melanoma.

On to `CO/N=C(\COc1ccc2oc(-c3ccccc3)cc(=O)c2c1)c1ccc(OC)cc1`, for which the GI50 is 27.3 µM with K-562 leukemia; 27.1 µM in the assay on KM12 colon; 41.4 µM with LOX IMVI melanoma; 24.8 µM with MALME-3M melanoma; 21.9 µM in the assay on NCI/ADR-RES ovarian; 24.4 µM in the assay with SF-539 CNS. Besides, the GI50 in the assay with SK-OV-3 ovarian was 59.3 µM; in the assay with SN12C renal, 19.3 µM; with TK-10 renal, 41.4 µM; in the assay on UACC-257 melanoma, 23.4 µM. The TGI in the assay on K-562 leukemia was over 100 µM; in the assay on KM12 colon, over 100 µM; in the assay on LOX IMVI melanoma, over 100 µM; with MALME-3M melanoma, 63.8 µM; in the assay with NCI/ADR-RES ovarian it was 51.4 µM; with SF-539 CNS, 64.7 µM. In addition, the TGI is over 100 µM in the assay on SK-OV-3 ovarian, 44.7 µM in the assay on SN12C renal, over 100 µM in the assay on TK-10 renal and 63.3 µM with UACC-257 melanoma.

On to `CN(C)CCNc1c2ccccc2nc2oc3ccccc3c12`, for which the GI50 is 5.22 µM with K-562 leukemia; 6.84 µM with KM12 colon; 4.35 µM with LOX IMVI melanoma; 3.73 µM in the assay on MALME-3M melanoma; 9 µM in the assay on NCI/ADR-RES ovarian; 4.03 µM with SF-539 CNS. For the same compound, the GI50 is 7.11 µM with SK-OV-3 ovarian, 5.66 µM in the assay on SN12C renal, 5.86 µM in the assay on TK-10 renal and 7.88 µM with UACC-257 melanoma. Besides, the TGI in the assay on K-562 leukemia is over 100 µM; in the assay on KM12 colon, 33.9 µM; in the assay on LOX IMVI melanoma, 14.9 µM; in the assay with MALME-3M melanoma it was 17.6 µM; in the assay on NCI/ADR-RES ovarian it was over 100 µM; in the assay on SF-539 CNS, 15.3 µM. Moreover, the TGI in the assay with SK-OV-3 ovarian came to 28.5 µM; with SN12C renal, 34 µM; in the assay on TK-10 renal, 55.5 µM; with UACC-257 melanoma, 27 µM.

For `O=C1C2CCN(CC2)C1(CO)CO`, the TGI was 54.5 µM with K-562 leukemia; over 93.2 µM in the assay on KM12 colon; 36 µM with LOX IMVI melanoma; 36.6 µM with MALME-3M melanoma; 60 µM in the assay with NCI/ADR-RES ovarian; over 78.1 µM in the assay with SF-539 CNS. The TGI is over 100 µM in the assay with SK-OV-3 ovarian, 33 µM in the assay on SN12C renal, 32.2 µM in the assay with TK-10 renal and 37.7 µM in the assay with UACC-257 melanoma.

Take `Clc1ccccc1CNc1c2ccccc2nc2ccccc12`: the GI50 is 1.48 µM with K-562 leukemia; 2.03 µM in the assay on KM12 colon; 1.57 µM in the assay on LOX IMVI melanoma; 2.71 µM in the assay with MALME-3M melanoma; 2.04 µM with NCI/ADR-RES ovarian; 1.84 µM in the assay on SF-539 CNS. Moreover, the GI50 with SK-OV-3 ovarian was 5.41 µM; with SN12C renal it was 1.93 µM; in the assay on TK-10 renal, 3.98 µM; with UACC-257 melanoma it was 2.99 µM. The TGI is 41.7 µM in the assay with K-562 leukemia; 8.28 µM in the assay with KM12 colon; 5.93 µM with LOX IMVI melanoma; 9.1 µM with MALME-3M melanoma; 9.52 µM in the assay with NCI/ADR-RES ovarian; 6.71 µM in the assay with SF-539 CNS. Moreover, the TGI in the assay with SK-OV-3 ovarian came out at 12.6 µM; with SN12C renal it was 8.27 µM; in the assay with TK-10 renal, 11 µM; in the assay on UACC-257 melanoma, 11.5 µM.

In the case of `O=[N+]([O-])c1cc(C(F)(F)F)ccc1Sc1ccc(C(F)(F)F)cc1[N+](=O)[O-]`, the GI50 in the assay on K-562 leukemia was 3.49 µM; in the assay on KM12 colon, 5.24 µM; in the assay with LOX IMVI melanoma, 3.37 µM; with MALME-3M melanoma, 17.5 µM; in the assay with NCI/ADR-RES ovarian, 8.19 µM; in the assay with SF-539 CNS, 9.15 µM. For the same compound, the GI50 was 7.65 µM with SK-OV-3 ovarian, 7.7 µM in the assay with SN12C renal, 28.3 µM in the assay on TK-10 renal and 6.65 µM in the assay with UACC-257 melanoma. For the same compound, the TGI in the assay with K-562 leukemia, with KM12 colon, in the assay on LOX IMVI melanoma, with MALME-3M melanoma, in the assay with NCI/ADR-RES ovarian and in the assay with SF-539 CNS was over 100 µM each time. Also, the TGI in the assay on SK-OV-3 ovarian, in the assay with SN12C renal, in the assay with TK-10 renal and in the assay with UACC-257 melanoma was over 100 µM each time.

Turning to `CN(Cc1cc(Br)cc(Br)c1O)Cc1c(O)ccc2ccccc12`, the TGI is 51.9 µM with K-562 leukemia; 33.5 µM in the assay on KM12 colon; 42.5 µM in the assay on LOX IMVI melanoma; 42.9 µM in the assay with MALME-3M melanoma; over 100 µM in the assay with NCI/ADR-RES ovarian; 35.6 µM with SF-539 CNS. In addition, the TGI in the assay on SK-OV-3 ovarian was determined as 52 µM; in the assay with SN12C renal, 32 µM; in the assay on TK-10 renal, 36.4 µM; with UACC-257 melanoma it was 37.5 µM.
